US6461997B1, “Triazole sulfones having herbicidal activity” (Monsanto Technology LLC, priority 1999, dated 2002)

Experiments:
SOLNI (black nightshade) = experiment: Pre-emergence herbicidal activity, warm season; format: in vivo, Solanum nigrum; details: GR80 = lowest tested rate (300, 100, 30, 10 g/ha) with 80% or greater inhibition; approx. 14 days after treating; 30/21° C.
In short: (§1)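 Seeds sown in sterilised fertilised topsoil received surface-applied compound in 50:50 acetone/water, typically at 300, 100, 30 and 10 g/ha, then greenhouse-grown at 30/21° C (warm-season species) or 18/13° C (cool-season species). Percent inhibition versus untreated plants was scored at about 14 days, giving GR80; an asterisk marks activity short of 80% at the top rate.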

[1] = system: CHEAL (common lambsquarters); experiment: Pre-emergence herbicidal activity, warm season; format: in vivo, Chenopodium album; details: GR80 = lowest tested rate (300, 100, 30, 10 g/ha) with 80% or greater inhibition; approx. 14 days after treating; 30/21° C.
In short: as §1

CONAR (field bindweed) = experiment: Pre-emergence herbicidal activity, warm season; format: in vivo, Convolvulus arvensis; details: GR80 = lowest tested rate (300, 100, 30, 10 g/ha) with 80% or greater inhibition; approx. 14 days after treating; 30/21° C.
Experimental: (§2) Tables 5 to 8 summarize results of tests conducted as described below to determine the pre-emergence herbicidal activity, in the form of a GR80 value, of illustrative compounds of this invention. […] Compounds of the invention were typically applied at rates of 300, 100, 30, and 10 g/ha. Where herbicidal activity was evident but 80% inhibition was not achieved at the highest rate tested, an asterisk (*) is shown in the following tables.
(§3) The pre-emergence tests were conducted by the following procedure. Topsoil was sieved to pass through a 1.27 cm screen. Fertilizer was added to the topsoil and the mixture was then sterilized by heating. The topsoil mixture was placed in a pot and compacted to a depth of 1.0 to 1.25 cm from the top of the pot. Seeds of each of several monocotyledonous and dicotyledonous annual plant species were placed on top of the soil. Additional soil was subsequently placed over the seeds to level-fill the pot. A known amount of each test compound dissolved or suspended in an appropriate organic solvent was diluted with a 50:50 mix of acetone and water and applied to the surface of the soil. After treatment the plants were placed in a greenhouse where they received 0.64 cm of overhead irrigation. All subsequent watering consisted of a light overhead mist and/or subirrigation as needed for germination and growth. Tables 5 and 6 below relate to warm season plant species which were placed after pre-emergence treatment in a greenhouse with a 30/21° C. day/night temperature regime. Tables 7 and 8 below relates to cool season plant species placed after pre-emergence treatment in a greenhouse or growth chamber with an 18/13° C. day/night temperature regime.
(§4) Approximately 14 days after planting and treating, the plants were observed and herbicidal efficacy recorded as percent inhibition by comparison with untreated plants.
(§5) The plant species usually regarded as weeds which were utilized in the tests are identified in the tables below according to the following legend, in which “d” indicates a dicotyledonous species and “m” a monocotyledonous species. All monocotyledonous species included in the tests herein are grasses.

POROL (common purslane) = experiment: Pre-emergence herbicidal activity, warm season; format: in vivo, Portulaca oleracea; details: GR80 = lowest tested rate (300, 100, 30, 10 g/ha) with 80% or greater inhibition; approx. 14 days after treating; 30/21° C.
In short: as §1

ECHCG (barnyardgrass) = experiment: Pre-emergence herbicidal activity, warm season; format: in vivo, Echinochloa crus-galli; details: GR80 = lowest tested rate (300, 100, 30, 10 g/ha) with 80% or greater inhibition; approx. 14 days after treating; 30/21° C.
In short: as §1

[2] = system: PANMI (wild proso millet); experiment: Pre-emergence herbicidal activity, warm season; format: in vivo, Panicum miliaceum; details: GR80 = lowest tested rate (300, 100, 30, 10 g/ha) with 80% or greater inhibition; approx. 14 days after treating; 30/21° C.
In short: (§6)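 Seeds were sown in sterilized, fertilized topsoil, covered, and the soil surface was sprayed with compound in 50:50 acetone/water at 300, 100, 30 and 10 g/ha. Pots were held at 30/21 °C day/night (PANMI, DIGSA) or 18/13 °C (ALOMY, POLCO). GR80 came from percent inhibition versus untreated plants at about 14 days.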

[3] = system: SORHA (johnsongrass (seedling)); experiment: Pre-emergence herbicidal activity, warm season; format: in vivo, Sorghum halepense; details: GR80 = lowest tested rate (300, 100, 30, 10 g/ha) with 80% or greater inhibition; approx. 14 days after treating; 30/21° C.
In short: as §1

SETFA (giant foxtail) = experiment: Pre-emergence herbicidal activity, warm season; format: in vivo, Setaria faberi; details: GR80 = lowest tested rate (300, 100, 30, 10 g/ha) with 80% or greater inhibition; approx. 14 days after treating; 30/21° C.
In short: as §1

PANDI (fall panicum) = experiment: Pre-emergence herbicidal activity, warm season; format: in vivo, Panicum dichotomiflorum; details: GR80 = lowest tested rate (300, 100, 30, 10 g/ha) with 80% or greater inhibition; approx. 14 days after treating; 30/21° C.
Experimental: as §2, §3, §4, §5

[4] = system: BRAPP (broadleaf signalgrass); experiment: Pre-emergence herbicidal activity, warm season; format: in vivo, Brachiaria platyphylla; details: GR80 = lowest tested rate (300, 100, 30, 10 g/ha) with 80% or greater inhibition; approx. 14 days after treating; 30/21° C.
In short: as §1

[5] = system: GALAP (catchweed bedstraw); experiment: Pre-emergence herbicidal activity, cool season; format: in vivo, Galium aparine; details: lowest tested rate with 80% or greater inhibition; rates 300, 100, 30, 10 g/ha; about 14 days
In short: as §1

POLCO (wild buckwheat) = experiment: Pre-emergence herbicidal activity, cool season; format: in vivo, Polygonum convolvulus; details: lowest tested rate with 80% or greater inhibition; rates 300, 100, 30, 10 g/ha; about 14 days
In short: as §6

SINAR (wild mustard) = experiment: Pre-emergence herbicidal activity, cool season; format: in vivo, Sinapis arvensis; details: lowest tested rate with 80% or greater inhibition; rates 300, 100, 30, 10 g/ha; about 14 days
In short: as §1

[6] = system: VERPE (creeping speedwell); experiment: Pre-emergence herbicidal activity, cool season; format: in vivo, Veronica persicaria; details: lowest tested rate with 80% or greater inhibition; rates 300, 100, 30, 10 g/ha; about 14 days
In short: as §1

SASKR (russian thistle) = experiment: Pre-emergence herbicidal activity, cool season; format: in vivo, Salsola kali; details: lowest tested rate with 80% or greater inhibition; rates 300, 100, 30, 10 g/ha; about 14 days
In short: as §1

STEME (common chickweed) = experiment: Pre-emergence herbicidal activity, cool season; format: in vivo, Stellaria media; details: lowest tested rate with 80% or greater inhibition; rates 300, 100, 30, 10 g/ha; about 14 days
In short: as §1

[7] = system: LAMPU (purple deadnettle); experiment: Pre-emergence herbicidal activity, cool season; format: in vivo, Lamium purpureum; details: lowest tested rate with 80% or greater inhibition; rates 300, 100, 30, 10 g/ha; about 14 days
In short: as §1

ALOMY (blackgrass) = experiment: Pre-emergence herbicidal activity, cool season; format: in vivo, Alopecurus myosuroides; details: GR80 = lowest tested rate (300, 100, 30, 10 g/ha) with 80% or greater inhibition; approx. 14 days after treating; 18/13° C.
In short: as §6

SETVI (green foxtail) = experiment: Pre-emergence herbicidal activity, cool season; format: in vivo, Setaria viridis; details: GR80 = lowest tested rate (300, 100, 30, 10 g/ha) with 80% or greater inhibition; approx. 14 days after treating; 18/13° C.
In short: as §1

LOLMG (annual ryegrass) = experiment: Pre-emergence herbicidal activity, cool season; format: in vivo, Lolium multiflorum; details: GR80 = lowest tested rate (300, 100, 30, 10 g/ha) with 80% or greater inhibition; approx. 14 days after treating; 18/13° C.
In short: as §1

[8] = system: AGSST (creeping bentgrass); experiment: Pre-emergence herbicidal activity, cool season; format: in vivo, Agrostis stolonifera; details: GR80 = lowest tested rate (300, 100, 30, 10 g/ha) with 80% or greater inhibition; approx. 14 days after treating; 18/13° C.
In short: as §1

CCSC(F)(F)S(=O)(=O)c1ncn(C(=O)N2CCCC2)n1 [Example 47]
Pre-emergence activity (GR80) SOLNI (SOLNI (black nightshade)): 300 g/ha
Pre-emergence activity (GR80) CHEAL [1]: 300 g/ha
Pre-emergence activity (GR80) CONAR (CONAR (field bindweed)): 300 g/ha
Pre-emergence activity (GR80) POROL (POROL (common purslane)): 300 g/ha
Pre-emergence activity (GR80) ECHCG (ECHCG (barnyardgrass)): 300 g/ha
Pre-emergence activity (GR80) PANMI [2]: 100 g/ha
Pre-emergence activity (GR80) SORHA [3]: 300 g/ha
Pre-emergence activity (GR80) SETFA (SETFA (giant foxtail)): 300 g/ha
Pre-emergence activity (GR80) PANDI (PANDI (fall panicum)): 300 g/ha
Pre-emergence activity (GR80) BRAPP [4]: 300 g/ha
Pre-emergence activity GR80, GALAP [5]: 300 g/ha
Pre-emergence activity GR80, POLCO (POLCO (wild buckwheat)): [empty]
Pre-emergence activity GR80, SINAR (SINAR (wild mustard)): 300 g/ha
Pre-emergence activity GR80, VERPE [6]: 10 g/ha
Pre-emergence activity GR80, SASKR (SASKR (russian thistle)): 100 g/ha
Pre-emergence activity GR80, STEME (STEME (common chickweed)): 30 g/ha
Pre-emergence activity GR80, LAMPU [7]: 30 g/ha
Pre-emergence activity (GR80) ALOMY (ALOMY (blackgrass)): 300 g/ha
Pre-emergence activity (GR80) SETVI (SETVI (green foxtail)): 300 g/ha
Pre-emergence activity (GR80) LOLMG (LOLMG (annual ryegrass)): 300 g/ha
Pre-emergence activity (GR80) AGSST [8]: 30 g/ha
